Molecular target: T1, E. coli MTA/AdoHcy nucleosidase (MTAN) (Escherichia coli, UniProt P0AF12)
T1 construct: hexahistidine; made in house; host or cells: bacterial expression vector
Assay: MTAN direct UV spectrophotometric enzyme assay (cleavage of MTA, absorbance at 275 nm)
Format: biochemical
Conditions: initial rates fitted to competitive inhibition; 100-250 μM MTA, 50 mM sodium phosphate pH 7, 0-1 μM inhibitor, 25° C; read-out: Ki (inhibitor constant for the initial rate reactions)
Method: The gene for E. coli MTA/AdoHcy nucleosidase (MTAN) was amplified and cloned into a bacterial hexahistidine plasmid expression vector. Induced recombinant enzyme was purified by Nickel-chelate chromatography, and dialyzed into 100 mM sodium phosphate buffer, pH 7. Enzyme purity was assessed by SDS-PAGE and concentration assigned using the experimentally determined extinction coefficient (ε280=10480 M^−1cm^−1).
MTAN assays were performed in 1 mL quartz cuvettes using a Perkin Elmer Lambda 35 UV/V is spectrometer outfitted with KinLab and UV WinLab software. This direct UV spectrophotometric assay follows the decrease in absorbance at 275 nm that accompanies the cleavage of MTA to MTR and Ade. (2-(4-Amino-5H-pyrrolo[3,2-d]pyrimidin-7-yl)-5-methyl-sulfanylmethyl-pyrrolidine-3,4-diol) and (2-Amino-4-[5-(4-amino-5H-pyrrolo[3,2-d]pyrimidin-7-yl)-3,4 dihydroxy-pyrrolidin-2-ylmethylsulfanyl]-butyric acid) inhibitor concentrations were assigned using UV absorbance and the extinction coefficient of 9-deazaadenine. […] Reactions were initiated by the addition of […] MTAN enzyme to the 1 mL assay mixture, and the change in UV absorbance followed for 20-25 minutes. […] Inhibitor constants for the initial rate reactions (Ki's) were calculated by fitting the results to the equation for competitive inhibition.

T1 sequence (P0AF12 whole entry): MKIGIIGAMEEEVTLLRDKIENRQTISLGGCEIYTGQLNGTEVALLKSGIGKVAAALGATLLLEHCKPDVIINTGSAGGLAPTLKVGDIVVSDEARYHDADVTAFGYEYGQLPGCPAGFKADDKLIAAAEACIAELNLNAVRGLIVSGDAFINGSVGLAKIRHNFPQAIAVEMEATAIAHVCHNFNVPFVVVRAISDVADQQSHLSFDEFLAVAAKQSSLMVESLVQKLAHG

With `Nc1ncnc2c(C3NC(CSCCC(N)C(=O)O)C(O)C3O)c[nH]c12` (stereo not shown) [2-Amino-4-[5-(4-amino-5H-pyrrolo[3,2-d]pyrimidin-7-yl)-3,4-dihydroxy-pyrrolidin-2-ylmethylsulfanyl]-butyric acid] the Ki was under 10 nM.

Reference: patent publication US20090012104A1, “Inhibitors of 5'-Methylthioadenosine Phosphorylase and 5'-Methylthioadenosine/S-Adenosylhomocysteine Nucleosidase” (priority 2004, published 2009)
